Data published in PMC7292393 (PLoS ONE, 2020).
Where “and” joins values, the source holds several entries; their conditions need not be identical. Equal values may be shown once. Entries after “also recorded” stand apart in the source; their conditions may differ. Read-outs that look alike come from different tables or passages of the source.

Experiments:
human SUMO1 = target: T1, human SUMO1 (Homo sapiens, UniProt P63165); assay: SPR secondary screen / dose-dependent binding; set-up: key to SPR Screens 2°: ✓: dose-dependent saturation kinetics; ×: no indication of saturation kinetics
T1 construct: encoding amino acids 1–97 of mature human SUMO1; host or cells: E. coli BL21 Rosetta (DE3)

[1] = target: T2, sumoylation of tumor suppressor p53 by SUMO1 (Homo sapiens, UniProt P63165); assay: In vitro sumoylation (SUMOlink SUMO-1 Kit), Western blot; type: biochemical; conditions: 300 μM fisetin, 30°C for 3 hr
T2 construct: purchased Active Motif 40120
From the text: (§1) To this end, we performed in vitro sumoylation experiments in which the cellular sumoylation reaction was reconstituted using purified human SUMO1, E1 activating enzyme, E2 conjugating enzyme, and two putative protein substrates (human tumor suppressor p53 and human transcription factor HSF1). E1 activating enzyme functions by transferring active SUMO1 protein to the E2 conjugating enzyme Ubc9, which in turn attaches SUMO1 onto target protein substrates. Both p53 and HSF1 proteins are linked to sumoylation as well as to cancer pathways.
(§2) Proteins were separated by SDS-PAGE using 4–20% or 7.5% Mini-PROTEAN TGX Precast Protein Gels (Bio-Rad, Hercules, CA) followed by detection with Bio-Safe Coomassie Stain (Bio-Rad). For Western immunoblotting experiments, proteins in SDS-PAGE gels were transferred onto a PVDF membrane at 4°C using Mini Trans-Blot Cell (Bio-Rad), blocked with 5% nonfat milk for 1 hr at room T or overnight at 4°C and incubated with the following primary antibodies at indicated dilutions for 1 hr at room T: 1:10,000 HSF1 polyclonal antibody (Enzo Life Sciences ADI-SPA-901-F; Lausen, Switzerland), 1:4000 p53 rabbit antibody (SUMOlink SUMO-1 Kit), 1:5000 SUMO-1 rabbit antibody (SUMOlink SUMO-1 Kit). Secondary antibody incubation was performed for 1 hr at room T using 1:10,000 goat anti-rabbit IgG polyclonal antibody (Enzo Life Sciences, ADI-SAB-300). […]

[2] = target: T3, sumoylation of HSF1 by SUMO1 (Homo sapiens, UniProt P63165); assay: as above; type: biochemical; conditions: 300 μM fisetin, 30°C for 3 hr
T3 construct: purchased Active Motif 40120; host or cells: HSF1 substrate made in house in E. coli BL21 Rosetta (DE3)
From the text: as §1, §2

T1 sequence (P63165 1-97): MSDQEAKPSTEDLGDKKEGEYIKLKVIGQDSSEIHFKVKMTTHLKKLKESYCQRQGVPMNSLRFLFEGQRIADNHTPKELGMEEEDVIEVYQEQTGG
T2 sequence (P63165 1-97 limits assumed): as the sequence (P63165 1-97) above
T3 sequence (P63165 1-97 limits assumed): as the sequence (P63165 1-97) above

O=c1c(O)c(-c2ccc(O)c(O)c2)oc2cc(O)ccc12 [Fisetin, 3,3',4',7-tetrahydroxyflavone]
saturation binding in SPR secondary screen (human SUMO1; Fig 2A-H): exhibited binding that approached saturation | Kd (human SUMO1; fisetin ~12 to 250 μM, Fig 2I, average of six replicates, read-out: Kd (SPR, extended range of concentrations)): 228 µM and ~228 µM | SPR Screens 2° (human SUMO1; five concentrations 31.25-500 μM): ✓ | Kd (human SUMO1; one-site hyperbola fit, 31.25-500 μM flavonoid, Fig 2A-C, read-out: Kd (SPR secondary screen)): 124 µM and ~124 µM | Kd (human SUMO1; range over the two experiments, Fig 2A and 2I, read-out: estimated Kd ranging (SPR)): 124 to 228 µM | sumoylation of p53 in vitro [1]: no SUMO conjugates of p53 were detected; also recorded: completely inhibits sumoylation | sumoylation of HSF1 in vitro [2]: failed to alter sumoylation
